Tests used:
[1] = organism: Homo sapiens; test: Ratio of Ki for inhibition of His-tagged HSD17B13 (unknown origin) using LTB3 as substrate to Ki for His-tagged HSD17B13 (unknown origin) using estradiol as substrate
[2] = Inhibition of His-tagged HSD17B13 (unknown origin) using estradiol as substrate incubated for 2 hrs and measured by LC-MS/MS analysis; set-up: species or system Homo sapiens
[3] = Inhibition of His-tagged HSD17B13 (unknown origin) using LTB3 as substrate incubated for 1 hr and measured after 1 hr by fluorescence based assay; set-up: species or system Homo sapiens

Ratio Ki [1]	Ki [2]	Ki [3]	SMILES
> 3.5	8550 nM	> 30000 nM	Oc1cccc(-c2nccc3cc(O)ccc23)c1
< 0.091	> 30000 nM	2720 nM	CCOC(=O)c1cccc(-n2c(-c3ccncc3)nc3cc(OC)ccc32)c1
8.8	320 nM	2810 nM	O=C1c2ccc(O)cc2C(=O)c2ccc(O)cc21 [ANTHRAFLAVICACID]
0.14	7580 nM	1070 nM	Cc1cc(-c2ccc(-c3cccc(O)c3)s2)ccc1O
